Results reported in PMC4858680, “A platinum-based hybrid drug design approach to circumvent acquired resistance to molecular targeted tyrosine kinase inhibitors” (Scientific Reports, 2016).
Where two headings read alike, the source gives them in different places.

Columns and labels:
[1] = target: ROS1 (Homo sapiens, UniProt P08922); conditions: 10 μM
[2] = target: EPHA5 (Homo sapiens, UniProt P54756); assay: biochemical; conditions: read-out: Percent control
[3] = target: T1, FLT3(N841I) (Homo sapiens, UniProt P36888, N841I)
T1 sequence (P36888 27-993 N841I): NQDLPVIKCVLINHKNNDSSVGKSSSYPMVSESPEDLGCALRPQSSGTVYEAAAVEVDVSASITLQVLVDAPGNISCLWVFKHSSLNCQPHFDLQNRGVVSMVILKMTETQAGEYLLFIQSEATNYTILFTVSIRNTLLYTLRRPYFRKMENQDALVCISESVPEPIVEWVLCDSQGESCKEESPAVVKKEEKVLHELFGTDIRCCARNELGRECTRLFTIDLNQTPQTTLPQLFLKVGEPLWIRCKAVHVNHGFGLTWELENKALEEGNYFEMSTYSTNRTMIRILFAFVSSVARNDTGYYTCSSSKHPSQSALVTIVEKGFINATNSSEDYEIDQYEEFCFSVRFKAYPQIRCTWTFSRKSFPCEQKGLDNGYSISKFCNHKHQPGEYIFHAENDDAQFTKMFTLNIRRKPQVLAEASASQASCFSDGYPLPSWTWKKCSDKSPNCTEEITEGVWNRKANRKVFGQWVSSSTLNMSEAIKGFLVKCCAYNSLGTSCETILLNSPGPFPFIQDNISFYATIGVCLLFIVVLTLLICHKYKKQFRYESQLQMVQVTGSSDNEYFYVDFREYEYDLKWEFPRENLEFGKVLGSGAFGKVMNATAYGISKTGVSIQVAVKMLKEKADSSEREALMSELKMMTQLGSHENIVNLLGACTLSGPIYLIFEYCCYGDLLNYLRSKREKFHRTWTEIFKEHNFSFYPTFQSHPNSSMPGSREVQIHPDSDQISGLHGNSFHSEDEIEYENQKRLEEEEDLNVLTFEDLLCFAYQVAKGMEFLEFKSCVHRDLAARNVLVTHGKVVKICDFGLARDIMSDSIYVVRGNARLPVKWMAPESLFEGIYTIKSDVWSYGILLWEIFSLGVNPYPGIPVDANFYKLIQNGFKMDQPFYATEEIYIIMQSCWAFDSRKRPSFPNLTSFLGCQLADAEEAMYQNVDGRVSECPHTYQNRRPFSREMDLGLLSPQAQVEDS

[4] = target: RET(V804TL) (Homo sapiens, UniProt P07949, V804L); conditions: 10 μM
[5] = target: RET (Homo sapiens, UniProt P07949); conditions: 10 μM
[6] = target: T2, EPHA4 (Homo sapiens, UniProt P54764); assay type: binding; conditions: 10 μM
T2 construct: purchased DiscoveRx KINOMEscan

[7] = target: LTK (Homo sapiens, UniProt P29376); conditions: 10 μM
[8] = target: TRKC (Homo sapiens, UniProt Q16288); conditions: 10 μM
[9] = target: T3, ERBB2 (Homo sapiens, UniProt P04626); assay type: binding; conditions: for remaining binding at 10 µM: read-out: Percent control
T3 construct: purchased DiscoveRx KINOMEscan

[10] = target: T4, AXL (Homo sapiens, UniProt P30530); conditions: 10 μM
T4 sequence (P30530 26-894): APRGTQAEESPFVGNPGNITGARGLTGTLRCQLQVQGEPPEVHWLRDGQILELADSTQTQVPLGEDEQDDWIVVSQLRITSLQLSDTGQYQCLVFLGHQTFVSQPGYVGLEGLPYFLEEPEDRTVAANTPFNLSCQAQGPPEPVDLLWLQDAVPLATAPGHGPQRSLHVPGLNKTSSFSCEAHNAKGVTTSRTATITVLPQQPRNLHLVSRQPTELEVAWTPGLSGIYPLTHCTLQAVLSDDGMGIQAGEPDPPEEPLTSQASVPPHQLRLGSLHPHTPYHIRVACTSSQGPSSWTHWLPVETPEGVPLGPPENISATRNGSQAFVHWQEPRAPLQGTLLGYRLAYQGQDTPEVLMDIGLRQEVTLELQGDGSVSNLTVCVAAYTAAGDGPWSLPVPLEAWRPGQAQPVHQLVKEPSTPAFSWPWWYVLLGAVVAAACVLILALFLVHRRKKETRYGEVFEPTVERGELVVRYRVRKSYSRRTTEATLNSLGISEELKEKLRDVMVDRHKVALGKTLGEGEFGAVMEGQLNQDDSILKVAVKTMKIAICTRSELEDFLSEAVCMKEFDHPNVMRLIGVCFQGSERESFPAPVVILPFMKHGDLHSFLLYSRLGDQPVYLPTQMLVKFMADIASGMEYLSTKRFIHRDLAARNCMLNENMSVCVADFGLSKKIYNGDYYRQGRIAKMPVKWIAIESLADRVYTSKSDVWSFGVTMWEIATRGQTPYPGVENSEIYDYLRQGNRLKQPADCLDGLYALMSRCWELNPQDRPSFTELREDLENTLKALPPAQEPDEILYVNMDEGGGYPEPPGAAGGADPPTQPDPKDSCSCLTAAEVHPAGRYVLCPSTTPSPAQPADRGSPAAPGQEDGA

[11] = target: FGFR2 (Homo sapiens, UniProt P21802); conditions: 10 μM
[12] = tested on: EGFR(L747-T751del,Sins); assay type: binding; conditions: 10 μM
[13] = target: FYN (Homo sapiens, UniProt P06241); conditions: 10 μM
[14] = target: PDGFRA (Homo sapiens, UniProt P16234); conditions: 10 μM
[15] = target: KIT(V559D) (Homo sapiens, UniProt P10721, V559D); conditions: 10 μM
Sequence of KIT(V559D) (P10721 26-976 V559D): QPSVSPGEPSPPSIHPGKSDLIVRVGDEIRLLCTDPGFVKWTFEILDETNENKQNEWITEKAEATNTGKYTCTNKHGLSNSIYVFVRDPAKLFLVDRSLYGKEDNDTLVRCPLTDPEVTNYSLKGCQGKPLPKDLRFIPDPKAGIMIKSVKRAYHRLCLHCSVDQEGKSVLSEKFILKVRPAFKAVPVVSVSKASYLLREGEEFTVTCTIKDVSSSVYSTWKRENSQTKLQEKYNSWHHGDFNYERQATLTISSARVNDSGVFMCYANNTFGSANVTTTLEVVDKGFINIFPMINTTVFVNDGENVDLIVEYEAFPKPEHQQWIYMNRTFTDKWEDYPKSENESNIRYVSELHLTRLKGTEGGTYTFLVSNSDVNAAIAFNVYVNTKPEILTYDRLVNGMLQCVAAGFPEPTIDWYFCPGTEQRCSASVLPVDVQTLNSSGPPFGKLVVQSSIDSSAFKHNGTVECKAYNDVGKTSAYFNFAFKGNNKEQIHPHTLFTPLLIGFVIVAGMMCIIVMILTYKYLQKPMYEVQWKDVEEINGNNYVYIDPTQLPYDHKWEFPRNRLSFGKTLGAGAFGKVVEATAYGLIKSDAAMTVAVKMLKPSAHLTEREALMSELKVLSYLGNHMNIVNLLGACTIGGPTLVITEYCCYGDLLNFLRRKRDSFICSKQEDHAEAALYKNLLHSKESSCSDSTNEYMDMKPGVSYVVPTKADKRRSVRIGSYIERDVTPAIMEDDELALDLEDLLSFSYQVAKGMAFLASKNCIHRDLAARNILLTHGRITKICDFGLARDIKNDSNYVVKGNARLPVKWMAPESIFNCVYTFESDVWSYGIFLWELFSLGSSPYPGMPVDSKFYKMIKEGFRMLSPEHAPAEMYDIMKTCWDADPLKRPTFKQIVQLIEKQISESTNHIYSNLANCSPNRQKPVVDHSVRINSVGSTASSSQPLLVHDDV

Sequence of FYN (P06241 whole entry): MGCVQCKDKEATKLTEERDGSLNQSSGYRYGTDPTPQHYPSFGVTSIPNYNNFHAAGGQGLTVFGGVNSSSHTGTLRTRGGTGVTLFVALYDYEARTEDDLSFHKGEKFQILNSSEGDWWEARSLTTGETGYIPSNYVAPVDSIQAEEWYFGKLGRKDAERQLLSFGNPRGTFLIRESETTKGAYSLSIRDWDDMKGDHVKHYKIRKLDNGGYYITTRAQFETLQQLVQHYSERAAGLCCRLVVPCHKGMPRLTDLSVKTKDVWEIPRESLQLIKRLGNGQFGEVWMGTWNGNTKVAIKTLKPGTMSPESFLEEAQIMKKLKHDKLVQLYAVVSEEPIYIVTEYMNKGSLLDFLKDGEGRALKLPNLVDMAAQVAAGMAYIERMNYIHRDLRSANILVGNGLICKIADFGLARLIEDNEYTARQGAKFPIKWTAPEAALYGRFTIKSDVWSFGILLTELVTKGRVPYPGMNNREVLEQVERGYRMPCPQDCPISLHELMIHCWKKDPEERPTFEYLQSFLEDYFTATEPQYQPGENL
Sequence of TRKC (Q16288 32-839): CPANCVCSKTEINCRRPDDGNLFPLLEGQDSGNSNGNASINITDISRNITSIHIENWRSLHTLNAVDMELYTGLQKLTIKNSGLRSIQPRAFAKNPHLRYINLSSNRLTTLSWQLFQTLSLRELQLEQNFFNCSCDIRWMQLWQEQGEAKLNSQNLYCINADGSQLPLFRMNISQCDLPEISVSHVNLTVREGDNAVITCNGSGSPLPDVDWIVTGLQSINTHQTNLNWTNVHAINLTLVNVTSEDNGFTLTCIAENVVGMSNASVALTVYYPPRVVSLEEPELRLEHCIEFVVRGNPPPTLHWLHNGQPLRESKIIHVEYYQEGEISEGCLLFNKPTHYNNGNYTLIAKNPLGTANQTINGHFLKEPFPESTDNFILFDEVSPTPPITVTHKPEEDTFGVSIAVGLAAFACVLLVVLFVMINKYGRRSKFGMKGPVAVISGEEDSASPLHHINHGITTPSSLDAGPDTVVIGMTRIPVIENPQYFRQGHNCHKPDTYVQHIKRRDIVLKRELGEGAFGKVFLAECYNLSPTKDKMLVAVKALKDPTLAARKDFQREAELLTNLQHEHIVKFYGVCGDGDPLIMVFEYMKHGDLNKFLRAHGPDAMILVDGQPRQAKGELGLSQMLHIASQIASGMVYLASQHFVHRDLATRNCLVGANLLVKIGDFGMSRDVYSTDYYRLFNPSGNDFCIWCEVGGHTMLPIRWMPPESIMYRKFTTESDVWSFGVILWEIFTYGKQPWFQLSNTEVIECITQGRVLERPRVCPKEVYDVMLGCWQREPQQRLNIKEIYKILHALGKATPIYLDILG
T2 sequence (P54764 20-986): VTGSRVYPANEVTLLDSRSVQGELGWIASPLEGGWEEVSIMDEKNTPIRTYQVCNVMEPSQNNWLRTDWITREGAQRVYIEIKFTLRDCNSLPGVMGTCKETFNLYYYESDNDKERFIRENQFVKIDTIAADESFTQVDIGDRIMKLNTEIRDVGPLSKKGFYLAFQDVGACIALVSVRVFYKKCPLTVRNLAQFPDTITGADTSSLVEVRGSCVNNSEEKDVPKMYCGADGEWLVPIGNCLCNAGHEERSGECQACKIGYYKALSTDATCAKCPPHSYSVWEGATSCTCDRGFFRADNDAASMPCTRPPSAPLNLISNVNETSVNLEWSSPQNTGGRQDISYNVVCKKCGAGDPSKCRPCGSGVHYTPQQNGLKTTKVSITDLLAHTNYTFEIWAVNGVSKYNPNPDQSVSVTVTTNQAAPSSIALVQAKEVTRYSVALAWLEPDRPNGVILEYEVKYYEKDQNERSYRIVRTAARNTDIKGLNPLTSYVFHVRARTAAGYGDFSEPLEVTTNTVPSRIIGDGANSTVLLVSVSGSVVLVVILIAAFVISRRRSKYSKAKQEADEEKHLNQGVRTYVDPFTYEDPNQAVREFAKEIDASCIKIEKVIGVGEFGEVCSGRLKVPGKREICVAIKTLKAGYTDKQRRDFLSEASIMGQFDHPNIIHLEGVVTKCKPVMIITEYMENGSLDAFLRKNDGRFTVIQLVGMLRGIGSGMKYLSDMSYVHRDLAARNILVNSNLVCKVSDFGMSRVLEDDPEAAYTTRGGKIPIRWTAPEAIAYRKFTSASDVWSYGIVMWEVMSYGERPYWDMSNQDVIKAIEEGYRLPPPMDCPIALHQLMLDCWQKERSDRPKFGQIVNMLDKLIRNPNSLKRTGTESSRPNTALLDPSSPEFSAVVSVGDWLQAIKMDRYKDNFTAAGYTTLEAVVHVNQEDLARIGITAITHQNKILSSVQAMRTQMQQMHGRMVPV
Sequence of LTK (P29376 17-864): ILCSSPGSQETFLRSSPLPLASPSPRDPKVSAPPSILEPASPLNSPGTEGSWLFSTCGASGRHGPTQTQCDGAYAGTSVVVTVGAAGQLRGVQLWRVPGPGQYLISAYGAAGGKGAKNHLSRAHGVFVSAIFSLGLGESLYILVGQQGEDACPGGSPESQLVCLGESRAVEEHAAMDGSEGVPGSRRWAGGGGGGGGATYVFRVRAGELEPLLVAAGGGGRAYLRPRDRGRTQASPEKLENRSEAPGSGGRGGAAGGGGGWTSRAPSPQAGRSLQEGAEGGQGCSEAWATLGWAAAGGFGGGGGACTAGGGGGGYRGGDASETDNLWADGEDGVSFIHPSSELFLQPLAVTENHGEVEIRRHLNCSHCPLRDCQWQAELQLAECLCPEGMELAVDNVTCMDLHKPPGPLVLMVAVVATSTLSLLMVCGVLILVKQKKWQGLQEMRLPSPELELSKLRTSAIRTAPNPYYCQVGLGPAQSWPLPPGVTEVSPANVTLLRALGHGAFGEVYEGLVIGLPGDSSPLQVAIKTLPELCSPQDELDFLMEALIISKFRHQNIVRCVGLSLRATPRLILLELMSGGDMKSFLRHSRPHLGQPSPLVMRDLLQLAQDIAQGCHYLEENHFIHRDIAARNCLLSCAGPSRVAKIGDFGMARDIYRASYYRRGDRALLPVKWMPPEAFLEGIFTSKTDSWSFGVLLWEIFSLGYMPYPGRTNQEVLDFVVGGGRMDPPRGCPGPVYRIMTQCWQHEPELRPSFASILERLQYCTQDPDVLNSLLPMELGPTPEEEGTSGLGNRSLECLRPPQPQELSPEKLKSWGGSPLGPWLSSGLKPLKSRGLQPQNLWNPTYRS
Sequence of FGFR2 (P21802 22-821): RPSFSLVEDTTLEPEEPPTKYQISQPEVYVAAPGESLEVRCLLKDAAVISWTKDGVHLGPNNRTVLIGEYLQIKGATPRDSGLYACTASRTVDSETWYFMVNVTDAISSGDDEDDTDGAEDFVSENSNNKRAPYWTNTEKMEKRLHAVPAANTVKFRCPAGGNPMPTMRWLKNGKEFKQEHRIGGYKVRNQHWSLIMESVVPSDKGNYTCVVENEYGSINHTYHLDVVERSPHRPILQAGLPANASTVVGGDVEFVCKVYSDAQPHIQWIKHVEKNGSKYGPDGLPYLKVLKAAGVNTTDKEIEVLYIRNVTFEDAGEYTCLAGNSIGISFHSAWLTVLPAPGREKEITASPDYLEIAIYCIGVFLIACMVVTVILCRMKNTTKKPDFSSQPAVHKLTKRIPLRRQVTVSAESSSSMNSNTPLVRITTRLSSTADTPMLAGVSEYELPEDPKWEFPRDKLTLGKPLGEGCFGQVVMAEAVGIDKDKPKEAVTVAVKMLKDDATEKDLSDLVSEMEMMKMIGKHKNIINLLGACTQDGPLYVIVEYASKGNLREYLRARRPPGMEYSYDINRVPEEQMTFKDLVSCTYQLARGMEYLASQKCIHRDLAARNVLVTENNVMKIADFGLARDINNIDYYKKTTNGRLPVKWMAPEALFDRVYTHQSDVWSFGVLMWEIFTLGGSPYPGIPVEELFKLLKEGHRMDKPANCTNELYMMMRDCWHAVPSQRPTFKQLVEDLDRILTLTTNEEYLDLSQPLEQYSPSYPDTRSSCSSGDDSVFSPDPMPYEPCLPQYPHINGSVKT

Cc1ccc(NC(=O)c2ccc(CN3CCN(C)CC3)cc2)cc1Nc1nccc(-c2cccnc2)n1 [Imatinib, reference compound]
Percent control [1]: 100% | remaining activity at 10 µM [2]: 100% | Percent control ([3]; FLT3(N841I), 10 μM): 100% | Percent control [4]: 100% | Percent control [5]: 100% | Percent control [6]: 100% | Percent control [7]: 92% | Percent control [8]: 100% | Percent control ([9]; ERBB2, 10 μM): 100% | Percent control [10]: 100% | Percent control [11]: 100% | Percent control [12]: 100%

Cc1ccc(NC(=O)c2ccc(CN3CCN(C)CC3)cc2)cc1Nc1nccc(-c2cccnc2)[n+]1[Pt-2]1([Cl])[NH2+]C2CCCCC2[NH2+]1 (stereo not drawn) [1b, oxaliplatin-imatinib]
Percent control [1]: 32% | Percent control ([3]; FLT3(N841I), 10 μM): 72% | Percent control [4]: 100% | Percent control [13]: 78% | Percent control [5]: 95% | Percent control [6]: 88% | Percent control [7]: 85% | Percent control [8]: 100% | Percent control ([9]; ERBB2, 10 μM): 82% | Percent control [10]: 100% | Percent control [14]: 1.2% | Percent control [15]: 0% | Percent control [11]: 100% | Percent control [12]: 76%

COc1cc2c(Nc3ccc(Br)cc3F)[n+]([Pt-2]3([Cl])[NH2+]C4CCCCC4[NH2+]3)cnc2cc1OCC1CCN(C)CC1 (stereo not drawn) [3b, oxaliplatin-vandetanib]
Percent control [1]: 74% | Percent control [3]: 18 | Percent control [13]: 32% | Percent control [7]: 27% | Percent control [8]: 98% | Percent control [10]: 19% | Percent control [14]: 5.7% | Percent control [15]: 0.5% | Percent control [11]: 67%

C#Cc1cccc(Nc2c3cc(OCCOC)c(OCCOC)cc3nc[n+]2[Pt@SP2-2]([NH3+])([NH3+])[Cl])c1 [2a, cisplatin-erlotinib]
Percent control [1]: 91% | Percent control [3]: 70 | Percent control [4]: 100% | Percent control [13]: 72% | Percent control [5]: 46% | Percent control [6]: 79% | Percent control [7]: 82% | Percent control [8]: 93% | Percent control ([9]; ERBB2, 10 μM): 21% | Percent control [10]: 93% | Percent control [14]: 100% | Percent control [15]: 88% | Percent control [11]: 91%

COc1cc2c(Nc3ccc(Br)cc3F)ncnc2cc1OCC1CCN(C)CC1 [Vandetanib, reference compound]
remaining activity at 10 µM [2]: 2.3% | remaining binding at 10 µM ([9]; ERBB2, 10 μM): 20.6% | Percent control [12]: 0.1%

C#Cc1cccc(Nc2ncnc3cc(OCCOC)c(OCCOC)cc23)c1 [Erlotinib]
remaining activity at 10 µM [2]: 6.6% | remaining binding at 10 µM [9]: 22.5% | Percent control [12]: 0.0%
